Source: patent US10450610B2, “Single nucleotide polymorphisms (SNP) and association with resistance to immune tolerance induction” (University of Tennessee Research Foundation, priority 2008, dated 2019)
Several values for one entry are separate records, joined by “and”; a condition that tells them apart may be missing. Identical values can stand only once.

Columns and labels:
Peyer's patch cells = assay: Peyer's patch cell / normal spleen cell co-culture proliferation with α1(II) CB peptide mixture (3H thymidine); type: in vivo; conditions: cells from mice fed piroxicam plus CII vs CII alone or piroxicam alone; p<0.03; FIG. 11
Procedure: To assess the status of the GALT in these three groups of mice, Peyer's patch cells were isolated from each animal, and set up (2.5×10^5/ml) in quadruplicate in co-culture with normal DBA/1 spleen cells (2×10^6/ml) with addition of recombinant murine IL2 (10 U/ml). PBS (as a control) or 50 μg/ml bovine α1(II) CB peptide mixture were added to quadruplicate wells in 96 round bottom well plates. After 3 days, cultures were pulsed with ^3H thymidine and harvested onto paper filters 24 h later. The “stimulation index” was calculated for each mouse by dividing the cpm of α1(II) CB peptide mixture culture by the cpm of the PBS control culture for each mouse. […] Thus, the marked increase in the stimulation index of Peyer's patch cells with DBA/1 spleen cells in the presence of α1(II) CB peptide mixture is quite exceptional and unexpected.

[1] = test system: mesenteric lymph node cells; assay: Mesenteric lymph node cell proliferation with α1(II) CB peptide mixture; type: in vivo, mice; conditions: FIG. 12; for proliferation in response to α1(II) CB peptide mixture: mice fed either CII or piroxicam alone
DBA/1 mice [2] = assay: Persistent NSAID effect on oral tolerance; arthritic joints after late CII immunization; type: in vivo; conditions: FIG. 10
Procedure: To determine whether chronic feeding of piroxicam with CII would have a persistent effect on tolerance induction to CII in DBA/1 mice, three groups of 10-11 DBA/1 mice were fed 8 doses of CII over two weeks (as above) on two occasions separated by 6 months: piroxicam (2.4 μg/gm) a.m. and Placebo (0.1M HAc, 100 μl) p.m.; Placebo (saline) a.m. and native bovine CII (10 μg) p.m; or piroxicam (2.4 μg/gm) a.m. and native bovine CII (10 μg) p.m. Three months after the second 8 dose feeding, each mouse was immunized (intradermally at base of tail) with 100 μg native bovine CII emulsified in complete Freund's adjuvant. Mice were placed in coded cages and scored twice weekly by a blinded observer for numbers of arthritic joints.

DBA/1 mice [3] = assay: NSAID inhibition of oral tolerance induction to collagen II; arthritic joints scored; type: in vivo
Procedure: To determine whether tolerance induction to orally fed bovine CII in DBA/1 mice would be abrogated by orally fed NSAID, 3 groups of 20-22 DBA/1 mice were fed (by gavage) eight doses (Monday, Tuesday, Thursday, and Friday for 2 weeks) of the following: Placebo (saline) in the a.m. and Placebo (0.1 M HAc) in the p.m.; Placebo (saline) in the a.m. and 10 μg native bovine CII in the p.m.; or piroxicam (2.4 μg/gm) in the a.m. and native bovine CII (10 μg) in the p.m. After 1 week, all mice were immunized (intradermally at the base of tail) with 100 μg of bovine CII emulsified in complete Freund's adjuvant. Animals were placed in coded cages and were scored by a blinded observer twice weekly for the number of arthritic joints (joints swollen, red, and/or deformed).

spleen cells [4] = assay: IFNγ production by spleen cells of fed, CII-immunized mice cultured with α1(II) CB peptide mixture (ELISA); type: in vivo; conditions: FIG. 8; for IFNγ production by spleen cells cultured with α1(II) CB peptide mixture: fed with Placebo (alone)
From the text: To assess the effect of oral feeding of piroxicam to another group of mice fed Placebo or CII on spleen cell IFNγ production in a manner similar to the experiment in FIG. 7, four groups of mice (4 mice per group) were gavaged 8 days over 2 weeks with the following: Piroxicam a.m.—CII p.m.; Piroxicam a.m.—HAc p.m.; Saline a.m.—CII p.m.; or Saline a.m.—HAc p.m. After 1 week rest, all mice were immunized at the base of the tail with a CII—complete Freund's adjuvant emulsion. After 14 days, mice ere sacrificed, and spleen cells were isolated and set up in culture with PBS or α1(II)CB peptide mixture. After 72 h culture, harvested supernatants ere analyzed for IFNγ levels by ELISA.

PBMC = assay: Oral collagen II in RA patients; IFNγ production (stimulation index) by PBMC cultured with α1(II); type: in vivo, human; conditions: for non-responders to oral CII: FIG. 13
Procedure: Immunological tolerance, defined as a ≥30% reduction in IFN-γ production by PBMC cultured with α1(II) of type II collagen, was examined in patients. Patients that were taking disease-modifying antirheumatic drugs, anti-TNF agents and/or non steroidal inflammatories were administered misoprostol 100 μg bid to reverse the non steroidal antiinflammatory inhibition of oral tolerance. Patients were randomized to receive “low” or “high” doses of CII. The Low Dose group (n=38) took daily 30 μg/day bovine CII for 10 weeks, then 50 μg/day for 10 weeks and then 70 μg/day for 10 weeks. The High Dose group (n=41) took 90 μg/day for 10 weeks, 110 μg/day for 10 weeks and then 130 μg/day for 10 weeks.
Heparinized blood was obtained at baseline and after each of the 10 week treatment periods. The blood was diluted 1:3 with RPMI 1640 containing penicillin (100 u/ml) and streptomycin (100 μg/ml) within 1-4 hours after collection, wrapped in paper, and placed in a styrofoam box containing a “cold pack” and shipped overnight. The PBMC were isolated from the blood samples and set up in culture with bovine α1(II) 25 μg/ml, PHA 10 μg/ml or with 50 ul PBS. After 6 days in culture, cell free supernatants were collected and stored at −70° for up to 7 months at which time all samples from a given patient were assayed for IFNγ by commercial ELISA (R & D Systems). The results are shown as in FIG. 13.
The IFNγ stimulation index (SI) was calculated as
[formula] The SI for patients receiving each of the low doses (30 μg, 50 μg and 70 μg/day) was compared with their SI at baseline before each of the 10 week treatments and similarly with the high dose CII group (90 μg, 110 μg and 130 μg/day) with their SI at baseline before each of the 10 week treatments.
SNP analysis was performed of 16 responders and 8 non-responders to oral CII to find the frequency of SNPs closely associated on chromosomes next to several cytokines and chemokines known to be important for oral tolerance induction. The 16 patients were those with had ≥50% reduction in IFNγ α1 stimulation index from baseline to either the 30 μg/day, 50 μg/day, 110 μg/day or 130 μg/day dose of CII (“OT Responders”). The 8 patients with increases in IFNγ α1 S.I. at the 30 μg/day, 50 μg/day, 110 μg/day or 130 μg/day doses of oral CII were selected (“OT Non-Responders”).

DBA/1 Lac mice = assay: Low dose oral collagen II tolerance induction; arthritis after CII/CFA immunization; type: in vivo; conditions: 8 times over 2 weeks, FIG. 6
Procedure: Groups of 12 mice were fed oral CII at the doses indicated 8 times over 2 weeks […]. After 4 days rest, the mice were then immunized at the base of the tail with 100 μg CII emulsified with complete Freund's adjuvant. The degree of arthritis was assessed by a blinded observer for 8 weeks.
The percent of mice with grade 3 or 4 arthritis is indicated on the Y-axis. The biphasis response is due to induction of different tolerance mechanisms by low dose vs high dose CII. Low dose CII (10μg) induces regulatory T cells while high dose (500 μg) induces anergy or clonal deletion.

spleen cells [5] = assay: COX-2 inhibitor SC′236 and oral tolerance induction; spleen cell IFNγ with α1(II) CB mixture (ELISA); type: in vivo, mice; conditions: CII 10 μg fed; vs Placebo control; p<0.025; FIG. 9
Procedure: Groups of 8 mice each were gavaged on MTTHF×2 weeks in the a.m. with PBS or SC′236 (5 μg/gm in 100 μl PBS). SC′236 (Searle) is ˜2000× more inhibitory for COX-2 than for COX-1.
Four of the mice given PBS in the a.m. and 4 mice given SC′236 in the a.m. were gavaged in the p.m. with 10 μg bovine type II collagen (CII). The other 4 mice in the a.m. PBS and a.m. SC′236 group were gavaged in the p.m. with 0.1M acetic acid (HAc) the vehicle the CII was dissolved in. After these 8 day feedings, all mice were rested for 1 week and then immunized with 100 μg of CII in complete Freund's adjuvant. After 10 days, all mice were sacrificed, and spleen cells (2×10^6/ml) were isolated and set up in culture with PBS and bovine α1(II) (50 μg/ml) CB mixture. After 4 days culture, the supernatants were harvested and IFNγ levels determined by ELISA (Endogen). Since the PBS+spleen cell culture from all mice produced between 1-12 pg/ml IFNγ, only the α1(II) data are plotted. All groups were compared to Placebo control group by Student's 2 sample t test.

[6] = individual RA patients, No SNP A-1515737 AA genotype
[7] = individual RA patients, SNP A-1515737 AA genotype

Molecule: CN1C(C(=O)Nc2ccccn2)=C(O)c2ccccc2S1(=O)=O [piroxicam]
- stimulation by α1(II) CB peptide mixture (stimulation index) (Peyer's patch cells): marked stimulation
- proliferation in response to α1(II) CB peptide mixture [1]: did not proliferate
- stimulation by α1(II) CB peptide mixture ([1]; mice fed piroxicam plus CII): marked stimulation
- oral tolerance (DBA/1 mice [2]): persistent abrogation of oral tolerance
- arthritic joints at week 7 and 8 after immunization (DBA/1 mice [2]; fed piroxicam plus CII 9 and 3 months before vs Placebo plus CII, p<0.04 at 8 weeks): significantly more arthritic joints
- oral tolerance (OT) induction (DBA/1 mice [3]; DBA/1 mice fed CII, FIG. 7 / similar studies (data not shown)): abrogation of certain forms of oral tolerance
- arthritic joints (DBA/1 mice [3]; piroxicam 2.4 μg/gm a.m. + CII 10 μg p.m., eight doses, FIG. 7): significantly more arthritic joints
- IFNγ production by spleen cells cultured with α1(II) CB peptide mixture (spleen cells [4]): reduced production of IFNγ
- IFNγ production by spleen cells stimulated with α1(II) CB peptide mixture (spleen cells [4]; piroxicam orally fed to mice being fed oral CII): dramatic increase

Molecule: bovine type II collagen [CII]
- suppression of IFNγ production (dose response) (PBMC; 30 μg, 50 μg and 110 μg/day of oral CII): maximal suppression
- IFNγ SI (PBMC; 70 μg and 90 μg/day doses): did not reduce
- IFNγ SI compared to baseline values (PBMC; 70 μg/day dose): significantly increased
- patients with a 50% reduction in α1(II) stimulated IFNγ production (PBMC; 30, 50 and 110 μg/day oral CII): 69%
- non-responders to oral CII (PBMC; 30-50 μg/day dose): 30%
- non-responders to oral CII (PBMC; 110-130 μg/day dose): 28%
- number of CII OT Non-Responder patients (PBMC; AA genotype): 7
- number of CII OT Responder patients (PBMC; AA genotype): 1
- number of CII OT Non-Responder patients (PBMC; Non-AA genotype): 2
- number of CII OT Responder patients (PBMC; Non-AA genotype): 15
- Ratio: After/baseline (IFNγ α1(II) SI) (PBMC; group mean, No SNP A-1515737 AA genotype): 0.427 ± 0.217
- α1(II) SI After Oral CII (PBMC; group mean, No SNP A-1515737 AA genotype (17 patients)): 175 ± 46
- Ratio: After/baseline (IFNγ α1(II) SI) (PBMC; group mean, SNP A-1515737 AA genotype): 3.512 ± 1.347
- α1(II) SI After Oral CII (PBMC; group mean, SNP A-1515737 AA genotype (7 patients)): 613 ± 256
- OT Responder (PBMC; [6]): Yes (15×) and No (2×)
- Ratio: After/baseline (IFNγ α1(II) SI) (PBMC; [6]): 0.4932 and 1.9178 and 2.9064 and 0.0573 and 0.1034 and 0.4119 and 0.0789 and 0.0694 and 0.0631 and 0 and 0.0018 and 0.0176 and 0.3520 and 0.0423 and 0.2454 and 0.0030 and 0.1008
- α1(II) SI After Oral CII (PBMC; individual RA patients, No SNP A-1515737 AA genotype, 30, 50 or 110 μg/day for 10 weeks): 360 and 280 and 590 and 152 and 6 and 276 and 18 (2×) and 503 and 19 and 0 and 3 and 7 and 358 and 93 and 540 and 246
- OT Responder (PBMC; [7]): No (6×) and Yes
- Ratio: After/baseline (IFNγ α1(II) SI) (PBMC; [7]): 2.3774 and 5.0500 and 2.9778 and 10.8021 and 0.0040 and 1.3688 and 2.0050
- α1(II) SI After Oral CII (PBMC; individual RA patients, SNP A-1515737 AA genotype, 30, 50 or 110 μg/day for 10 weeks): 630 and 404 and 268 and 2020 and 3 and 167 and 800
- oral tolerance to CII (reduced immune response to fed antigen) (PBMC; patients taking DMARDs, anti-TNF agents and NSAIDS, low dose misoprostol given): can be induced
- IFNγ α1(II) S.I. after oral CII treatment (PBMC; patients who carried SNP A-1515737 AA, p=0.230): no significant change
- IFNγ α1(II) S.I. after oral CII compared to baseline values (PBMC; patients without SNP A-1515737 AA (ROT1 AA) genotype, p<0.001): significant reduction
- IFNγ SI (PBMC; ten weeks treatment with 30, 50, 110 and 130 μg/day oral CII, vs baseline): marked suppression
- proliferation in response to α1(II) CB peptide mixture [1]: did not proliferate
- incidence of arthritis (percent of mice with grade 3 or 4 arthritis) (DBA/1 Lac mice; 10 μg/day oral CII): most effective in reducing the incidence of arthritis
- incidence of arthritis (percent of mice with grade 3 or 4 arthritis) (DBA/1 Lac mice; 500 μg/day oral CII): also, but less, effective
- IFNγ production by spleen cells stimulated by α1(II) CB digest (spleen cells [5]): significant reduction
- percent of arthritic joints (DBA/1 mice [3]; Placebo+CII (10 μg, eight doses) vs Placebo+Placebo fed controls, p<0.03, FIG. 7): less
- IFNγ production by spleen cells cultured with α1(II) CB peptide mixture (spleen cells [4]): reduced production of IFNγ
